“Also recorded” adds a separate entry of the source.
Key:
[1] = tested on: MDA-MB-231 breast cancer cell line; assay: MChip cancer cell migration assay, cells loaded in channel #1; format: cell-based
Description: The microfluidic device was pre-filled with FBS-free cell culture medium and incubated at 37° C. for 1 hour. All of the channel inlet/outlet, except cell loading inlets (top/bottom channel #1) and middle channel outlet, are sealed with tape before cell loading. Cancer cells were collected from culture plates with 0.25% Trypsin-EDTA (ThermoFisher, Waltham, Mass.) and pelleted by centrifugation at 500 g for 5 minutes. Then, the cells were re-suspended in FBS-free culture medium, DMEM or RPMI (ThermoFisher, Waltham, Mass.), to a concentration of 5×10^5 cells/mL. 50 μL of cell suspension was pipetted into the cell loading channels. One syringe pump (Chemyx, Stafford, Tex.) was connected to the middle channel outlet and the flow rate was 5 μL/min. When all entrances of migration channels were filled with cancer cells, the pump was stopped and the cell suspension was replaced with FBS-free cell culture medium. The device was then placed in the incubator (37° C., 5% CO2) for 40 min to ensure the cell adhesion to the glass slide. Then, the tape/covers were removed from the cell loading outlet and middle inlet, and these inlets were connected with syringe pumps. The FBS-free medium flowed into the cell loading channel while the middle channel was filled with medium containing 10% FBS. The flow rates for 3 channels were 0.1 μL/min. The entire chip was placed in the cell culture incubator (37° C., 5% CO2) for about 24 hours. […]
Since migration time^14, 21 and FBS concentration were key parameters that determined the final position of individual cells, a series experiment were conducted to test the influence of different FBS concentrations (0%, 5%, and 10%) and various working time (6 hr, 12 hr, and 24 hr). […] It is noteworthy that cell migratory behaviors were also determined by the glass coating method, for example, coating using different concentrations of collagen and poly-L-Lysine (FIG. 7). […]

[2] = tested on: MDA-MB-231 cancer cells; assay: MChip purification assay, cells loaded in middle channel, cancer cell readout; format: cell-based; conditions: FMLP vs control; FIG. 14
Description: (§1) WBCs and MDA-MB-231 cancer cells were mixed at a 1:1 ratio in FBS-free DMEM medium and loaded to the top edge of the middle/main channel. The positions of these cells were determined by an optimized flow rate and open/close of channel inlets/outlets. Briefly, the microfluidic device was filled with cell culture medium and incubator at 37° C. for one hour. Sealed all the inlet/outlets except cell loading inlet (middle/main channel) and channel #1 outlet (top). 50 μL cell mixture was loaded into cell loading inlet and the cell alignment was achieved using a syringe pump (5 μL/min) that connected to the channel #1 outlet (top). Then replaced the cell suspension with FBS-free medium and incubated for 30 minutes. The FBS-free medium flowed into the middle channel, the top channel (first outer channel) #1 was filled with medium containing 10% FBS, and the bottom channel (second outer channel) […] was filled with FBS-free medium containing FMLP (200 ng/mL). The flow rates for 3 channels were 0.1 μL/min. The cells were incubated at 37° C. for 24 hours.
(§2) To retrieve the cancer cells of heterogeneously migratory properties with low WBCs contamination, the cell loading channel and “chemos” loading channel (middle, #9) were swapped: cells was loaded to the top part of the middle channel (#9) while the serum was loaded into side channels (top/bottom, #1). […]

[3] = tested on: WBCs; assay: MChip purification assay, cells loaded in middle channel, WBC readout; format: cell-based, human
Description: as §1
The blood sample was drawn from multiple healthy donors in compliance with the applicable federal, state, and institutional policies and procedures in the United States. Healthy human blood samples were obtained from the Clinical and Translational Research Unit of the University of Georgia with informed consent according to an IRB-approved protocol. The collected blood samples were stored in vacutainer K2-EDTA (BD, Franklin Lakes, N.J.). Complete blood count (CBC) reported was obtained to determine the number & subtypes of WBCs. The blood processing with iFCS was discussed in our previous work (Zhao, et al., Lab on a Chip 2019, 19 (10), 1860-76, incorporated by reference above).^10
as §2

[4] = tested on: WBCs; assay: MChip WBC migration assay, cells loaded in channel #1; format: cell-based, human
Description: FIGS. 6A-6H illustrate purification of circulating tumor cells isolated from human blood using iFCS separation and an embodiment of a device of the present disclosure. FIG. 6A is images validation of combination effect of using iFCS and a device of the present disclosure with cultured cancer cells spiked into healthy blood. Left, an iFCS device was used to recover more than 99.2% spiked cancer cells and deplete many WBCs (˜500 cells per mL). Collected cancer cells and WBCs were injected into the “MChip” of the present disclosure to further purify CTC by removing most remaining WBCs based on different migratory abilities, as shown in the right image. Migratory cancer cells could be retrieved with high purity. FIG. 6B is a graph comparing migratory abilities for cells before and after iFCS processing. […] FIG. 6C illustrates WBC (n=-5000, channel #1 loading) migration assays under control (FBS only), WBC chemo-attractant (FM LP) and WBC chemo-repellent (Slit2). FBS (10%) or Slit2 (5 μg/mL) were loaded into the middle channel (channel #9), while FMLP (200 ng/mL) were filled in the […]. Only the WBCs of >200 μm Y position were counted. […] Right, images of WBCs 24-hour migration assay using Slit2 (5 μg/mL) in 10% FBS. Flow rate v=0.1 μL/min. WBCs were stained with cell tracker red. Fluorescence images were taken at 0 hour and 24 hours. Circles indicate the migratory WBCs. FIG. 6D is a graph illustrating breast cancer cells, MDA-MB-231, loaded into channel #1 with Slit2 (5 μg/mL) in 10% FBS in the middle channel. Flow rate v=0.1 μL/min. The graph indicates positions of MDA-MB-231 and the rectangular symbols indicate the mean value. FIG. 6E is an image of WBCs (red) and MDA-MB-231 (green) mixture (1:1) migration assay with middle channel (channel #9) filled with 10% FBS and Slit2 (5 μg/mL). At 24 hours, most of the migratory cancer cells moved into the migration/collection channels with ˜2 WBCs contamination. FIG. 6F illustrates a WBC migration assay using FBS, FMLP, and Slit2. WBCs (n=˜2500) loaded into the top edge of the middle channel. […]

[5] = 1:1 mixture, 10% FBS top channel, 0% FBS middle, 0% FBS + FMLP (200 ng/mL) bottom, 24 hours

collagen
average migration distance by glass coating method ([1]; collagen vs poly-L-Lysine coating at different concentrations, FIG. 7): largest

fMet-Leu-Phe [FMLP]
effect on MDA-MB-231 migration [2]: without a negative effect | WBCs moved to the bottom part [3, 5]: 88.3% | WBCs stayed in the middle loading channel [3, 5]: 11.2% | effect on WBC migration direction ([3]; FMLP in bottom side channel, WBCs loaded at top edge of middle channel, FIG. 6F): attract the majority of WBCs to the bottom part; also recorded: significant performance in inducing cells toward the bottom channel

B1: slit2: Slit guidance ligand 2, chemo-repellent for WBCs, neutrophil inhibitor (protein, UniProt O94813 31-1529, looked up)
Slit homolog 2 protein: QCSCSGSTVDCHGLALRSVPRNIPRNTERLDLNGNNITRITKTDFAGLRHLRVLQLMENKISTIERGAFQDLKELERLRLNRNHLQLFPELLFLGTAKLYRLDLSENQIQAIPRKAFRGAVDIKNLQLDYNQISCIEDGAFRALRDLEVLTLNNNNITRLSVASFNHMPKLRTFRLHSNNLYCDCHLAWLSDWLRQRPRVGLYTQCMGPSHLRGHNVAEVQKREFVCSGHQSFMAPSCSVLHCPAACTCSNNIVDCRGKGLTEIPTNLPETITEIRLEQNTIKVIPPGAFSPYKKLRRIDLSNNQISELAPDAFQGLRSLNSLVLYGNKITELPKSLFEGLFSLQLLLLNANKINCLRVDAFQDLHNLNLLSLYDNKLQTIAKGTFSPLRAIQTMHLAQNPFICDCHLKWLADYLHTNPIETSGARCTSPRRLANKRIGQIKSKKFRCSAKEQYFIPGTEDYRSKLSGDCFADLACPEKCRCEGTTVDCSNQKLNKIPEHIPQYTAELRLNNNEFTVLEATGIFKKLPQLRKINFSNNKITDIEEGAFEGASGVNEILLTSNRLENVQHKMFKGLESLKTLMLRSNRITCVGNDSFIGLSSVRLLSLYDNQITTVAPGAFDTLHSLSTLNLLANPFNCNCYLAWLGEWLRKKRIVTGNPRCQKPYFLKEIPIQDVAIQDFTCDDGNDDNSCSPLSRCPTECTCLDTVVRCSNKGLKVLPKGIPRDVTELYLDGNQFTLVPKELSNYKHLTLIDLSNNRISTLSNQSFSNMTQLLTLILSYNRLRCIPPRTFDGLKSLRLLSLHGNDISVVPEGAFNDLSALSHLAIGANPLYCDCNMQWLSDWVKSEYKEPGIARCAGPGEMADKLLLTTPSKKFTCQGPVDVNILAKCNPCLSNPCKNDGTCNSDPVDFYRCTCPYGFKGQDCDVPIHACISNPCKHGGTCHLKEGEEDGFWCICADGFEGENCEVNVDDCEDNDCENNSTCVDGINNYTCLCPPEYTGELCEEKLDFCAQDLNPCQHDSKCILTPKGFKCDCTPGYVGEHCDIDFDDCQDNKCKNGAHCTDAVNGYTCICPEGYSGLFCEFSPPMVLPRTSPCDNFDCQNGAQCIVRINEPICQCLPGYQGEKCEKLVSVNFINKESYLQIPSAKVRPQTNITLQIATDEDSGILLYKGDKDHIAVELYRGRVRASYDTGSHPASAIYSVETINDGNFHIVELLALDQSLSLSVDGGNPKIITNLSKQSTLNFDSPLYVGGMPGKSNVASLRQAPGQNGTSFHGCIRNLYINSELQDFQKVPMQTGILPGCEPCHKKVCAHGTCQPSSQAGFTCECQEGWMGPLCDQRTNDPCLGNKCVHGTCLPINAFSYSCKCLEGHGGVLCDEEEDLFNPCQAIKCKHGKCRLSGLGQPYCECSSGYTGDSCDREISCRGERIRDYYQKQQGYAACQTTKKVSRLECRGGCAGGQCCGPLRSKRRKYSFECTDGSSFVDEVEKVVKCGCTRCVS
WBCs contamination in migration/collection channels ([4]; WBCs and MDA-MB-231 mixture (1:1), middle channel 10% FBS and Slit2 (5 μg/mL), 24 hours): ~2 WBCs | loaded WBCs remaining in the loading channel with non-migratory cells ([4]; middle channel 10% FBS and 5 μg/mL slit2): 99.6% | WBCs that left the cell loading channel (#1) ([4]; middle channel loaded with 10% FBS and 5 μg/mL slit2, 24 hours, 0.1 μL/min): 0.4% | cancer cells squeezed into the migration channel ([1]; 5 μg/mL slit2 in 10% FBS in middle channel, 0.1 μL/min): 85% | effect on migratory behavior of MDA-MB-231 cancer cells ([1]; 5 μg/mL slit2 in 10% FBS in middle channel, P=0.004): slightly compromise
